From US8309126B2, “Dispersible bosentan tablet” (Actelion Pharmaceuticals, Ltd., priority 2005, dated 2012)

Assay: Solubility of compound I in water
Assay type: physicochemical
Text: The bitter taste of compound I can also be overcome by using flavouring agents (1.5) and/or sweetening agents (1.6).

## COc1ccccc1Oc1c(NS(=O)(=O)c2ccc(C(C)(C)C)cc2)nc(-c2ncccn2)nc1OCCO [compound I, 4-tert-butyl-N-[6-(2-hydroxy-ethoxy)-5-(2-methoxy-phenoxy)-2-(pyrimidin-2-yl)-pyrimidin-4-yl]-benzenesulfonamide]
Presence of an acidifying agent (1.4), tablet dispersed with water
  Effect of an acidifying agent on solubility of compound I: decreases the solubility
water
  Solubility in water: practically insoluble
